Data on 1 compound can be found in patent US20230116399A1, “Tumor Homing Statin Derivatives” (Da Zen Theranostics, Inc., priority 2019, published 2023).

In experiment [1] the test system is 22Rv1 human prostate carcinoma tumors. The experiment can be described thus: Tumor volume of 22Rv1 tumors grown subcutaneously in mice. Type of experiment: in vivo. The following applies: 5 mg/kg, intravenously injected. The procedure: Example 1D: 22Rv1 human prostate carcinoma cells are cultured as described above, separated from the medium, resuspended in 50% phosphate buffered saline (PBS) and 50% BD Matrigel™ (BD Biosciences, CA), and then the re-suspended cells are injected and grown subcutaneously in mice. […] The decrease of the THSD in the tumors at 2 and 4 weeks, respectively, as determined by NIR signal, is less than about 30%.
Example 1E: 22Rv1 human prostate carcinoma cells are cultured, injected and grown subcutaneously in mice as described above in example 1D. Tumor volume is monitored by measuring the size by caliper and calculating volume as described in example 9 below. The mice are intravenously injected with the following: ALSD of formula FIId, “DZ2a”, compound 7, the corresponding unconjugated dye (here: DZ1), unconjugated Simvastatin, a statin drug (SIM), and docetaxel (DOC), a cancer drug, and a mixture of the ALSD with DOC. Each active was administered in an amount of 5 mg/kg for the ALSD, DZ1, and SIM, except, in case of DOC, 8 mg/kg. A slower rate of increased tumor volume indicates tumor suppressive activity.

The test system of experiment [2] is 22Rv1 cancer cells. Description: Western blot for polyubiquitinated proteins. Format: cell-based, human. The following applies: anti-ubiquitin antibody. The procedure: Example 3D: Proteins are denatured and separated as described in example 3C; on the membrane a western blot is performed using an antibody that targets ubiquitin for detection of polyubiquitinated proteins; the probes include a molecular weight marker (“Marker”), DMSO (vehicle which serves as a control), an unconjugated statin (Simvastatin), an unconjugated dye (DZ1), and the THSD (here ALSD of formula FIId, “DZ2a”, compound 7). […] Thus it is shown that THSD prevent the removal of polyubiquitinated proteins by cancer cells through altered autophagic processes which involve defective lysosomal functions.

In experiment [3] the test system is RhoA/B in H-1975 human lung cancer tumors. The experiment can be described thus: RhoA/B membrane staining of tumor tissue, H-1975 mouse model. Type of experiment: in vivo, mice. The note with it: 5 mg/kg. As to the method:
RhoA/RhoB membrane staining of tumor tissue of a H-1975 human lung cancer cell mouse model is performed as described below, and the tumor-bearing mice are treated with a THSD (here an ALSD of formula FIId, “DZ2a”, compound 7) in comparison to the corresponding unconjugated dye (“DZ1”) and to Gefinitib (an EGFR inhibitor drug used for treatment of certain breast, lung and other cancers).
H-1975 cells, a cell model for human lung cancer that is resistant to Gefitinib (an EGFR inhibitor drug used for treatment of certain breast, lung and other cancers) are cultured as described above and injected subcutaneously into mice to develop tumors. The mice and the tumors that are formed are systemically exposed to an ALSD (here of formula FIId, “DZ2a”, compound 7) by intravenous injection. The tumor-bearing mice are treated with either Gefitinib (20 mg/kg), or with an ALSD (here of formula FIId, “DZ2a”, compound 7, 5 mg/kg), an unconjugated dye of formula III (“DZ1”, 5 mg/kg) or a combination of the ALSD with Gefitinib.
For immunostaining of tumor tissue, the animals are sacrificed by prescribed and approved euthanasia techniques. Tumor tissue (maximum thickness 3 mm) is sliced, formalin fixated, embedded into paraffin blocks which are sectioned and processed into paraffin section slides. […]

With `CC1(C)C(/C=C/C2=C(Cl)C(=C/C=C3/N(CCCCCC(=O)O)c4ccccc4C3(C)C)/CCC2)=[N+](CCCCS(=O)(=O)[O-])c2ccccc21` [DZ1], the “tumor suppressive activity (tumor volume increase)” value in experiment [1] is listed as “no significant tumor suppressive activity”. Moreover, the “ubiquitin signal (polyubiquitinated proteins)” value in experiment [2] was “much weaker signals and less of a smear”. Also, in experiment [3], the “RhoA/B staining of tumor cell membranes” value was “staining persists in the membranes”.
